We go through three compounds from US20100286101A1, “PHARMACEUTICAL COMPOSITION INCLUDING A CORTICOSTEROID AND A VITAMIN D ANALOG HAVING IMPROVED STABILITY” (priority 2009, published 2010).

A short description of the data set: Solvent attributes (dipolar, H-bonding, miscibility in mineral oil). The data set is classed as physicochemical.

For the compound Polysorbate 80, the Dipolar result is “Yes”, the H-bonding result is recorded as “Yes” and the “Miscibility in oil (mineral oil)” value was “No”.
With `CC(O)CO` (stereo not drawn) [Propylene Glycol], the Dipolar entry was “Yes”, the H-bonding result is recorded as “Yes” and the “Miscibility in oil (mineral oil)” value is “No”.
With Sorbitan Sesquioleate, the Dipolar entry is on record as “Yes”, the H-bonding entry is “Yes” and the “Miscibility in oil (mineral oil)” value is “Yes”.
